Experimental data taken from patent US20140100241A1 (priority 2007, published 2014).
Like-named read-outs stand apart in the source and are kept apart here.

Legend:
[1] = tested on: patients with opiate dependence; assay: Clinical detoxification of opiate-dependent patients with decreasing buprenorphine troche doses (microdose protocol)
[2] = cited from earlier work

SMILES: O=C1CC[C@@]2(O)[C@H]3Cc4ccc(O)c5c4[C@@]2(CCN3CC2CC2)[C@H]1O5 [Naltrexone]
- return of withdrawal symptoms after the end of buprenorphine treatment ([1]; Naltrexone administered at 12.5 mg): up to five days

SMILES: CN1C(=O)CN=C(c2ccccc2)c2cc(Cl)ccc21 [Diazepam]
- observed effect in the early phase of withdrawal ([1]; outpatients): too dis-inhibiting

SMILES: COC12CCC3(CC1C(C)(O)C(C)(C)C)C1Cc4ccc(O)c5c4C3(CCN1CC1CC1)C2O5 [Buprenorphine, (2S)-2-[(−)-(5R,6R,7R,14S)-9α-cyclopropylmethyl-4,5-epoxy-6,14-ethanomorphinan-7-yl]-3-hydroxy-6-methoxy-3,3-dimethylbutan-2-ol]
- withdrawal symptoms after dose reduction ([1]; 2.0 mg dose reduction, experienced or chronic user of narcotic type medications): significant withdrawal symptoms
- time to return of withdrawal symptoms ([1]; cut-off of 2.0 mg): ≤ 24 h
- treatment outcome ([1]; fractional dose of 1.5 mg after a final 3.0 mg dose): unsuccessful
- patients transitioned safely and in a symptomless manner from buprenorphine to the blocker Naltrexone ([1]; increased number of sub 0.1 mg doses, treatment three or more months): ~100%
- completion rate (completion means a narcotic free state) ([1]; microdose methods over an extended period, months rather than days or weeks): approximately 96%
- duration of withdrawal symptoms ([1]; previous treatment regimens, doses 8.0 to 3.0 mg): three to five days
- withdrawal symptoms reported by patients ([1]; serial doses of 0.25 mg): perceptible and, in some cases, intolerable withdrawal symptoms
- success rate ([1]; when taken to completion of the dose reduction schedule): greater than 90%
- mean half-life ([2]; in vivo): 35 to 37 h
- elimination half-life (mean) ([2]; mean): 37 h
- first-pass metabolism ([2]; oral administration): very high
- elimination half-life ([2]; range): 20 to 73 h
- mean half-life ([2]; taken sublingually): 35 to 37 h
